Consider 3 compounds from paper PMC11435438, “Cyclin-Dependent Kinase 8 Represents a Positive Regulator of Cytomegalovirus Replication and a Novel Host Target for Antiviral Strategies” (Pharmaceutics, 2024).

SMILES strings stand for the structures.

Test [1] concerns GPCMV-GFP. Kind of test: GPCMV-GFP replication assay in GPEFs. The format is cell-based, guinea pig cytomegalovirus. The settings on record: Caviid betaherpesvirus 2, read-out: EC50 GPCMV. The text has this:
(§1) Similarly, 2 × 10^4 primary embryonic guinea pig fibroblasts GPEFs/96-well, or 1.35 × 10^4 HFFs/96-well, or 2 × 10^4 rat REFs/96-well, or 2 × 10^4 murine MEFs/96-well, were cultivated for infection with GPCMV-GFP, RhCMV-GFP, ChCMV, RCMV-mCherry, or MCMV-GFP, respectively (all approx. MOI of 0.01 referring to 1 × TCID25), and were used for the assessment of antiviral drug activity. To this end, cells were fixed 7 d p.i. (RCMV-mCherry 4 d p.i.), before GFP or mCherry expression was quantified using the Victor X4 microplate reader, or other viral replication markers were measured as explained for the individual experiments. ChCMV replication in HFFs was monitored and quantified by the use of Anti-Cytomegalovirus Antibody Alexa Fluor™ 488. For immunofluorescence staining with Anti-Cytomegalovirus Antibody Alexa Fluor™ 488 (Sigma Aldrich, St. Louis, MO, USA; solution in PBS with 1% FCS), the infected cells were fixed at 7 d p.i. with 10% formalin and permeabilized with 0.2% Triton-x-100. Cell nuclei were counterstained using Höchst dye to be measured using the ImageXpress Pico (Molecular Devices, LLC, San Jose, CA, USA). Mean EC50 values of antiviral efficacy were calculated on the basis of three experimental replicates or as indicated (measurement of fluorescence values in quadruplicate), and percentage values were provided relative to the solvent control (DMSO).
To address cell viability after compound treatment, a NR uptake assay was performed. Uninfected cells were seeded at equal numbers as for antiviral replication assays and treated with compounds or solvent control. […] NR fluorescence was quantified using the Victor X4 microplate reader (PerkinElmer, Waltham, MA, USA) (560/630 nm). For the AB cell viability assay, which was also used to quantify virus-induced cytopathogenicity (particularly in the case of GPCMV in GPEFs), cells were seeded at equal numbers as for antiviral replication assays and incubated with a medium containing 25 ng/mL AB (resazurin; Ann Arbor, MI, USA), incubated for 6 h at 37 °C, and used for measurement identical with NR.

Test [2] concerns HCMV AD169-GFP. Kind of test: microbe, parasite or virus in culture. The format is cell-based, human cytomegalovirus. As to the method:
(§2) (i.e., 1 × TCID25/7d). Immediately after virus adsorption, the cells were treated with antiviral compounds or solvent control (DMSO). Infections were performed in biological quadruplicates, or as indicated for individual experiments. The cells were fixed by the addition of 150 µL 10% formalin/well 7 d p.i. (Merlin-GFP 14 d p.i.), and washed with PBS. For GFP or YFP quantitation, the Victor X4 microplate reader (PerkinElmer, Waltham, MA, USA) was primarily used, or as a very sensitive alternative, the ImageXpress® Pico device (Molecular Devices LLC, San Jose, CA, USA). Mean EC50 values of antiviral efficacy were calculated on the basis of three experimental replicates or as indicated (measurement of fluorescence values in quadruplicate), and percentage values were provided relative to the solvent control (DMSO).

Test [3] has as its system RhCMV-GFP. Put plainly: RhCMV-GFP replication assay in HFFs. Format: cell-based, rhesus cytomegalovirus. The settings on record: in Macaca mulatta, read-out: EC50 RhCMV.
From the text: as §1

The test system of test [4] is HCMV Merlin-GFP. Put plainly: HCMV Merlin-GFP replication assay in U373 cells. Format: cell-based, human cytomegalovirus. The settings on record: Human betaherpesvirus 5, U373 MG, read-out: EC50 Merlin-GFP. As to the method: as §2
Test [5] relates to ChCMV strain Herberling. Put plainly: ChCMV replication assay in HFFs (immunofluorescence). Conditions: in Pan troglodytes, n = 2. The format is cell-based, chimpanzee cytomegalovirus.
From the text: as §1

Test [6] concerns HCMV TB40-YFP. Put plainly: HCMV TB40-YFP replication assay in U373 cells. The format is cell-based, human cytomegalovirus. Conditions: Human betaherpesvirus 5, U373 MG, read-out: EC50 TB40-YFP. As for the experimental part:
as §2

The test system of test [7] is MCMV-GFP. Put plainly: MCMV-GFP replication assay in MEFs. Format: cell-based, murine cytomegalovirus. The settings on record: Murid betaherpesvirus 1, read-out: EC50 MCMV.
From the text: as §1

Test [8] has as its system HCMV AD169-GFP. Put plainly: HCMV AD169-GFP replication assay in U373 cells. Format: cell-based, human cytomegalovirus. The settings on record: Human betaherpesvirus 5, AD169, U373 MG, read-out: EC50 AD169-GFP. As for the experimental part: as §2
Test [9] relates to HCMV Merlin-GFP. Put plainly: HCMV Merlin-GFP replication assay in HFFs. The format is cell-based, human cytomegalovirus. Conditions: Human betaherpesvirus 5, HFF, read-out: EC50 Merlin-GFP. As to the method:
as §2

Test [10] concerns RCMV-mCherry. Kind of test: RCMV-mCherry replication assay in REFs. The format is cell-based, rat cytomegalovirus. Conditions: in Rattus norvegicus, read-out: EC50 RCMV.
From the text: as §1

Setting [11] is: Human betaherpesvirus 5, AD169, HFF, read-out: EC50 AD169-GFP.
The mark [12] stands for this setting: Human betaherpesvirus 5, AD169, read-out: EC50 HCMV.

Take `Cn1ncc2cc(-c3cnc(N)c(Cl)c3N3CCC4(CCNC4=O)CC3)ccc21` [CCT-151921]: the half-maximal effective concentration (EC50) in test [1] was 19.4 ± 33.2 nM; in [2] (setting [11]), 3.9 ± 2 nM; in test [2] (setting [12]), 3.9 ± 2 nM; in test [3], 2.48 ± 1.63 nM; in [4], 14.7 ± 16.3 nM; in test [5], 31 ± 18 nM. Besides, the concentration giving a half-maximal response (EC50) amounted to 8.5 ± 11.1 nM in test [6]; 2.65 ± 4.5 nM in test [7]; 16.3 ± 7.13 nM in test [8]; 1.27 ± 1.17 nM in [9]; 11.2 ± 22.7 nM in [10].
As for `Cc1n[nH]c2ncc(C(=O)N3CCC[C@H]3c3ccc(Cl)cc3)cc12` [MSC-2530818], the EC50 is 4.48 ± 4.84 nM in test [1]; 1.21 ± 0.77 nM in [2] (setting [11]); 1.21 ± 0.77 nM in [2] (setting [12]); 2.17 ± 1.37 nM in test [3]; 4.47 ± 4.4 nM in test [4]; 21 ± 26.5 nM in test [5]. Further, the EC50 was 12.3 ± 11.3 nM in test [6]; 1.8 ± 1.99 nM in test [7]; 18.5 ± 11.2 nM in test [8]; 5.55 ± 5.63 nM in [9]; 4.87 ± 4.67 nM in test [10].
For `CN(C)C(=O)Cn1cc(-c2ccc(-c3cncc4ccccc34)cc2)cn1` [BI-1347], the half-maximal effective concentration (EC50) turned out to be 1.11 ± 2.37 nM in test [1]; 0.93 ± 0.67 nM in test [2] (setting [11]); 0.93 ± 0.67 nM in test [2] (setting [12]); 0.4 ± 0.48 nM in test [3]; 1.4 ± 1.37 nM in test [4]; 11.6 ± 22.6 nM in test [5]. Moreover, the concentration giving a half-maximal response (EC50) in test [6] came to 19.3 ± 21 nM; in [7], 1.57 ± 1.71 nM; in [8], 10.8 ± 5.73 nM; in test [9], 0.54 ± 0.99 nM; in test [10], 1.08 ± 1.49 nM.

One may read the EC50 as the concentration needed to bring the measured effect to its halfway point.
